In patent US3939143A, “1-N-isoserylkanamycins and the production thereof” (Zaidan Hojin Biseibutsu Kagaku Kenkyu Kai, priority 1973, dated 1976):
Values after ≈ are worked out from the molar mass of the structure shown.

Tests used:
Sarcina lutea PCI 1001 = assay: Minimum inhibitory concentration, serial dilution on nutrient agar; type: cell-based; conditions: Micrococcus luteus, PCI1001; 37°C, 18 hours; read-out: Minimum Inhibitory Concentration
Proteus vulgaris OX 19 = assay: as above; type: cell-based; conditions: OX19, 37°C, 18 hours, read-out: Minimum Inhibitory Concentration
[1] = tested on: Shigella dysenteriae JS 11910; assay: as above; type: cell-based; conditions: JS11910, 18 h, read-out: Minimum Inhibitory Concentration
[2] = tested on: Bacillus subtilis PCI 219; assay: as above; type: cell-based; conditions: PCI219, 37°C, 18 hours, read-out: Minimum Inhibitory Concentration
[3] = tested on: Pseudomonas aeruginosa GN315; assay: as above; type: cell-based; conditions: GN315, 37°C, 18 hours, read-out: Minimum Inhibitory Concentration
[4] = tested on: Staphylococcus aureus Terajima; assay: as above; type: cell-based; conditions: 37°C, 18 hours, read-out: Minimum Inhibitory Concentration
[5] = tested on: Staphylococcus aureus Smith; assay: as above; type: cell-based; conditions: 37°C, 18 hours, read-out: Minimum Inhibitory Concentration
[6] = tested on: Escherichia coli LA290 R55; assay: as above; type: cell-based; conditions: LA290R55, 18 h, read-out: Minimum Inhibitory Concentration
[7] = tested on: kanamycin-resistant strains; conditions: phosphotransferase-producing resistant strains; cited from earlier work
Bacillus anthracis = assay: microbe, parasite or virus in culture; type: cell-based; conditions: 18 h, read-out: Minimum Inhibitory Concentration
[8] = tested on: Bacillus cereus ATCC 10702; assay: Minimum inhibitory concentration, serial dilution on nutrient agar; type: cell-based; conditions: ATCC10702, 37°C, 18 hours, read-out: Minimum Inhibitory Concentration
[9] = tested on: Escherichia coli JR66/W677; assay: as above; type: cell-based; conditions: JR66/W677, 37°C, 18 hours, read-out: Minimum Inhibitory Concentration
[10] = tested on: Escherichia coli LA290 R64; assay: as above; type: cell-based; conditions: LA290R64, 18 h, read-out: Minimum Inhibitory Concentration
Escherichia coli NIHJ = assay: as above; type: cell-based; conditions: 37°C, 18 hours, read-out: Minimum Inhibitory Concentration
nucleotidyltransferase = conditions: adenylylation of 2"-hydroxyl group with ATP; cited from earlier work
[11] = tested on: Escherichia coli LA290 R56; assay: Minimum inhibitory concentration, serial dilution on nutrient agar; type: cell-based; conditions: LA290R56, 18 h, read-out: Minimum Inhibitory Concentration
[12] = tested on: Mycobacterium smegmatis ATCC 607; assay: as above; type: cell-based; conditions: Mycolicibacterium smegmatis, ATCC607; 37°C, 18 hours; read-out: Minimum Inhibitory Concentration
[13] = tested on: Escherichia coli JR66/W677; conditions: nucleotidyltransferase-producing resistant strain; cited from earlier work
[14] = tested on: Escherichia coli K-12 ML 1410 R81; assay: Minimum inhibitory concentration, serial dilution on nutrient agar; type: cell-based; conditions: 18 h, read-out: Minimum Inhibitory Concentration
[15] = tested on: Salmonella enteritidis 1891; assay: as above; type: cell-based; conditions: Salmonella enterica, 18 h, read-out: Minimum Inhibitory Concentration
[16] = tested on: Escherichia coli K-12 ML 1410; assay: as above; type: cell-based; conditions: K12ML1410, 18 h, read-out: Minimum Inhibitory Concentration
[17] = tested on: Escherichia coli K-12 ML 1629; assay: as above; type: cell-based; conditions: K12ML1629, 37°C, 18 hours, read-out: Minimum Inhibitory Concentration
[18] = tested on: Shigella flexneri 4b JS 11811; assay: as above; type: cell-based; conditions: 4BJS11811, 37°C, 18 hours
Method: (§1) The minimum inhibitory concentrations (mcg/ml) of 1-N-DL-isoserylkanamycin,1-N-DL-isoserylkanamycin B and 1-N-DL-isoseryl-3',4'-dideoxykanamycin B against various microorganisms were determined according to the serial dilution method using nutrient agar medium at 37°C, the estimation being effected after 18 hours incubation. For comparison purposes, the minimum inhibitory concentrations of kanamycin, kanamycin B and 3',4'-dideoxykanamycin B were also determined in the same manner and under the same conditions as mentioned above.
(§2) The antibacterial spectra of 1-N-DL-isoseryl-kanamycin (abbreviated as 1-IS-KM), 1-N-DL-isoseryl-kanamycin B (abbreviated as 1-IS-KMB) and 1-N-DL-isoseryl-3',4'-dideoxykanamycin B (abbreviated as 1-IS-DKB) are shown in the following table together with those of kanamycin (abbreviatedas KM), kanamycin B (abbreviated as KMB) and 3',4'-dideoxykanamycin B (abbreviated as DKB).

[19] = tested on: Pseudomonas aeruginosa A3; assay: as above; type: cell-based; conditions: 37°C, 18 hours
Method: as §1, §2

[20] = tested on: Escherichia coli K-12 ML 1630; assay: as above; type: cell-based; conditions: K12ML1630, 37°C, 18 hours
Method: as §1, §2

Shigella sonnei JS 11746 = assay: as above; type: cell-based; conditions: JS11746, 37°C, 18 hours
Method: as §1, §2

[21] = tested on: Pseudomonas aeruginosa TI-13; assay: as above; type: cell-based; conditions: TI13, 37°C, 18 hours
Method: as §1, §2

[22] = tested on: Bacillus subtilis NRRL B-558; assay: as above; type: cell-based; conditions: NRRLB558, 37°C, 18 hours, read-out: Minimum Inhibitory Concentration
Escherichia coli K-12 = assay: as above; type: cell-based; conditions: K12, 37°C, 18 hours, read-out: Minimum Inhibitory Concentration
Salmonella typhosa T-63 = assay: as above; type: cell-based; conditions: Salmonella enterica, 18 h, read-out: Minimum Inhibitory Concentration
[23] = tested on: Corynebacterium bovis 1810; assay: as above; type: cell-based; conditions: Corynebacterium bovis, 1810; 37°C, 18 hours; read-out: Minimum Inhibitory Concentration
[24] = tested on: Klebsiella pneumoniae PCI 602; assay: as above; type: cell-based; conditions: PCI602, 37°C, 18 hours, read-out: Minimum Inhibitory Concentration
[25] = tested on: Klebsiella pneumoniae 22 No. 3038; assay: as above; type: cell-based; conditions: 22NO.3038, 37°C, 18 hours, read-out: Minimum Inhibitory Concentration
[26] = tested on: Pseudomonas aeruginosa 99; assay: as above; type: cell-based; conditions: Pseudomonas aeruginosa, 99; 37°C, 18 hours; read-out: Minimum Inhibitory Concentration
[27] = tested on: Pseudomonas aeruginosa No.12; assay: as above; type: cell-based; conditions: NO.12, 37°C, 18 hours, read-out: Minimum Inhibitory Concentration
[28] = tested on: Staphylococcus aureus FDA 209P; assay: as above; type: cell-based; conditions: FDA209P, 37°C, 18 hours, read-out: Minimum Inhibitory Concentration
Escherichia coli W677 = assay: as above; type: cell-based; conditions: W677, 37°C, 18 hours, read-out: Minimum Inhibitory Concentration
phosphotransferase = conditions: phosphorylation of the 3'-hydroxyl group; cited from earlier work
[29] = tested on: kanamycin- and ribostamycin-resistant bacteria; conditions: some kanamycin- and ribostamycin-resistant bacteria; cited from earlier work

For NC[C@@H]1CC[C@@H](N)[C@@H](O[C@H]2[C@H](O)[C@@H](O[C@H]3O[C@H](CO)[C@@H](O)[C@H](N)[C@H]3O)[C@H](N)C[C@@H]2N)O1 [DKB, 3',4'-dideoxykanamycin B, reference compound], the MIC (Sarcina lutea PCI 1001) was 6.25 µg/mL (≈ 13.8 µM), the MIC (Proteus vulgaris OX 19) was < 0.2 µg/mL and the MIC [1] was 1.56 µg/mL (≈ 3.45 µM). The MIC [2] was < 0.2 µg/mL, the MIC [3] was > 100 µg/mL and the MIC [4] was < 0.2 µg/mL. For the same compound, the MIC [5] was < 0.2 µg/mL, the MIC [6] was 50 µg/mL (≈ 111 µM) and the “activity against kanamycin-resistant strains” value [7] was “actually effective”. For the same compound, the MIC (Bacillus anthracis) was < 0.2 µg/mL, the MIC [8] was 0.78 µg/mL (≈ 1.73 µM) and the MIC [9] was 50 µg/mL (≈ 111 µM). The MIC [10] was 6.25 µg/mL (≈ 13.8 µM), the MIC (Escherichia coli NIHJ) was 0.39 µg/mL (≈ 0.864 µM) and the inactivation by nucleotidyltransferase (nucleotidyltransferase) was “inactivating”. The MIC [11] was 12.5 µg/mL (≈ 27.7 µM), the MIC [12] was 0.39 µg/mL (≈ 0.864 µM) and the “activity against Escherichia coli JR66/W677” value [13] was “inactive”. It also gave an MIC [14] of 1.56 µg/mL (≈ 3.45 µM), an MIC [15] of 1.56 µg/mL (≈ 3.45 µM) and an MIC [16] of 1.56 µg/mL (≈ 3.45 µM). The MIC [17] was 0.78 µg/mL (≈ 1.73 µM), the MIC [18] was 1.56 µg/mL (≈ 3.45 µM) and the MIC [19] was 1.56 µg/mL (≈ 3.45 µM). The MIC [20] was 0.78 µg/mL (≈ 1.73 µM), the MIC (Shigella sonnei JS 11746) was 0.78 µg/mL (≈ 1.73 µM) and the MIC [21] was 1.56 µg/mL (≈ 3.45 µM). For the same compound, the MIC [22] was < 0.2 µg/mL, the MIC (Escherichia coli K-12) was 0.78 µg/mL (≈ 1.73 µM) and the MIC (Salmonella typhosa T-63) was < 0.2 µg/mL. For the same compound, the MIC [23] was 3.13 µg/mL (≈ 6.93 µM), the MIC [24] was 0.39 µg/mL (≈ 0.864 µM) and the MIC [25] was 100 µg/mL (≈ 221 µM). The MIC [26] was 3.13 µg/mL (≈ 6.93 µM), the MIC [27] was 0.78 µg/mL (≈ 1.73 µM) and the MIC [28] was < 0.2 µg/mL. For the same compound, the MIC (Escherichia coli W677) was 0.2 µg/mL (≈ 0.443 µM) and the “susceptibility to / inactivation by phosphotransferase” value (phosphotransferase) was “not susceptible”.

In the case of NCC[C@H](O)C(=O)N[C@@H]1C[C@H](N)[C@@H](O[C@H]2O[C@H](CN)[C@@H](O)[C@H](O)[C@H]2N)[C@H](O[C@@H]2O[C@H](CO)[C@@H](O)[C@H]2O)[C@H]1O [butirosin B, 1-N-[(S)-4-amino-2-hydroxy-n-butyryl]-ribostamycin], the “activity against resistant bacteria” value [29] is listed as “active”.
